Values joined by “and” are separate entries in the source; they are usually repeats but may differ in a detail not shown here. Identical values can stand only once.
Experiment: xn = mol fraction of the nth substance listed

ClC(Cl)=C(Cl)Cl + CCOCCO
viscosity [mPa·s], 101.33 kPa
Details | x1 = 0.1174 | x1 = 0.2104 | x1 = 0.323 | x1 = 0.4392 | x1 = 0.5276 | x1 = 0.6168 | x1 = 0.7085 | x1 = 0.8053 | x1 = 0.9054
303.15 K | 1.513 | 1.396 | 1.272 | 1.149 | 1.065 | 0.992 | 0.926 | 0.869 | 0.822
313.15 K | 1.201 | 1.132 | 1.049 | 0.968 | 0.91 | 0.857 | 0.809 | 0.769 | 0.739

Cc1ccnc(C)c1 + c1ccccc1
viscosity [mPa·s], 101 kPa
Details | x1 = 0.1033 | x1 = 0.1926 | x1 = 0.3022 | x1 = 0.397 | x1 = 0.492 | x1 = 0.6027 | x1 = 0.697 | x1 = 0.8005 | x1 = 0.8995
303 K | 0.5693 | 0.5838 | 0.6013 | 0.6187 | 0.6483 | 0.6749 | 0.6927 | 0.7197 | 0.7508
313 K | 0.5048 | 0.5147 | 0.5305 | 0.5497 | 0.5727 | 0.5908 | 0.6073 | 0.6318 | 0.6679
323 K | 0.4489 | 0.4582 | 0.4749 | 0.4967 | 0.5102 | 0.5277 | 0.5424 | 0.5752 | 0.5919

c1ccccc1 + CCCCO
Details | viscosity
293.15 K, 101.33 kPa, x2 = 0.2 | 0.714 mPa·s and 0.714 mPa·s
293.15 K, 101.33 kPa, x2 = 0.4 | 0.898 mPa·s
293.15 K, 101.33 kPa, x2 = 0.5 | 1.054 mPa·s and 1.054 mPa·s
293.15 K, 101.33 kPa, x2 = 0.6 | 1.279 mPa·s
293.15 K, 101.33 kPa, x2 = 0.8 | 1.92 mPa·s
298.15 K, 101 kPa, x1 = 0.082 | 2.158 mPa·s
298.15 K, 101 kPa, x1 = 0.151 | 1.88 mPa·s
298.15 K, 101 kPa, x1 = 0.254 | 1.511 mPa·s
298.15 K, 101 kPa, x1 = 0.345 | 1.277 mPa·s
298.15 K, 101 kPa, x1 = 0.52 | 0.919 mPa·s
298.15 K, 101 kPa, x1 = 0.678 | 0.754 mPa·s
298.15 K, 101 kPa, x1 = 0.841 | 0.63 mPa·s
298.15 K, 101 kPa, x1 = 0.915 | 0.601 mPa·s
298.15 K, 101 kPa, x2 = 0.05 | 0.604 mPa·s
298.15 K, 101 kPa, x2 = 0.1 | 0.62 mPa·s
298.15 K, 101 kPa, x2 = 0.16 | 0.64 mPa·s
298.15 K, 101 kPa, x2 = 0.21 | 0.664 mPa·s
298.15 K, 101 kPa, x2 = 0.41 | 0.842 mPa·s
298.15 K, 101 kPa, x2 = 0.51 | 1.006 mPa·s
298.15 K, 101 kPa, x2 = 0.61 | 1.178 mPa·s
298.15 K, 101 kPa, x2 = 0.81 | 1.684 mPa·s
298.15 K, 101.33 kPa, x2 = 0.2 | 0.655 mPa·s
298.15 K, 101.33 kPa, x2 = 0.216 | 0.657 mPa·s
298.15 K, 101.33 kPa, x2 = 0.409 | 0.824 mPa·s
298.15 K, 101.33 kPa, x2 = 0.604 | 1.119 mPa·s
298.15 K, 101.33 kPa, x2 = 0.808 | 1.71 mPa·s
303 K, 101.3 kPa, x1 = 0.1035 | 1.9 mPa·s
303 K, 101.3 kPa, x1 = 0.2024 | 1.601 mPa·s
303 K, 101.3 kPa, x1 = 0.3037 | 1.344 mPa·s
303 K, 101.3 kPa, x1 = 0.4 | 1.145 mPa·s
303 K, 101.3 kPa, x1 = 0.5047 | 0.9759 mPa·s
303 K, 101.3 kPa, x1 = 0.5931 | 0.8562 mPa·s
303 K, 101.3 kPa, x1 = 0.7016 | 0.7412 mPa·s
303 K, 101.3 kPa, x1 = 0.766 | 0.6921 mPa·s
303 K, 101.3 kPa, x1 = 0.8859 | 0.611 mPa·s
303.15 K, 101 kPa, x1 = 0.082 | 1.918 mPa·s
303.15 K, 101 kPa, x1 = 0.151 | 1.668 mPa·s
303.15 K, 101 kPa, x1 = 0.254 | 1.354 mPa·s
303.15 K, 101 kPa, x1 = 0.345 | 1.145 mPa·s
303.15 K, 101 kPa, x1 = 0.52 | 0.838 mPa·s
303.15 K, 101 kPa, x1 = 0.678 | 0.694 mPa·s
303.15 K, 101 kPa, x1 = 0.841 | 0.587 mPa·s
303.15 K, 101 kPa, x1 = 0.915 | 0.564 mPa·s
303.15 K, 101.33 kPa, x2 = 0.2 | 0.604 mPa·s
303.15 K, 101.33 kPa, x2 = 0.4 | 0.746 mPa·s
303.15 K, 101.33 kPa, x2 = 0.5 | 0.864 mPa·s
303.15 K, 101.33 kPa, x2 = 0.6 | 1.021 mPa·s
303.15 K, 101.33 kPa, x2 = 0.8 | 1.49 mPa·s
308.15 K, 101 kPa, x1 = 0.082 | 1.702 mPa·s
308.15 K, 101 kPa, x1 = 0.151 | 1.49 mPa·s
308.15 K, 101 kPa, x1 = 0.254 | 1.209 mPa·s
308.15 K, 101 kPa, x1 = 0.345 | 1.032 mPa·s
308.15 K, 101 kPa, x1 = 0.52 | 0.764 mPa·s
308.15 K, 101 kPa, x1 = 0.678 | 0.64 mPa·s
308.15 K, 101 kPa, x1 = 0.841 | 0.549 mPa·s
308.15 K, 101 kPa, x1 = 0.915 | 0.529 mPa·s
308.15 K, 101.33 kPa, x2 = 0.2 | 0.562 mPa·s and 0.562 mPa·s
308.15 K, 101.33 kPa, x2 = 0.216 | 0.564 mPa·s
308.15 K, 101.33 kPa, x2 = 0.4 | 0.687 mPa·s
308.15 K, 101.33 kPa, x2 = 0.409 | 0.691 mPa·s
308.15 K, 101.33 kPa, x2 = 0.5 | 0.791 mPa·s and 0.791 mPa·s
308.15 K, 101.33 kPa, x2 = 0.6 | 0.924 mPa·s
308.15 K, 101.33 kPa, x2 = 0.604 | 0.911 mPa·s
308.15 K, 101.33 kPa, x2 = 0.8 | 1.335 mPa·s
308.15 K, 101.33 kPa, x2 = 0.808 | 1.353 mPa·s
313.15 K, 101 kPa, x1 = 0.082 | 1.51 mPa·s
313.15 K, 101 kPa, x1 = 0.151 | 1.336 mPa·s
313.15 K, 101 kPa, x1 = 0.254 | 1.086 mPa·s
313.15 K, 101 kPa, x1 = 0.345 | 0.934 mPa·s
313.15 K, 101 kPa, x1 = 0.52 | 0.702 mPa·s
313.15 K, 101 kPa, x1 = 0.678 | 0.593 mPa·s
313.15 K, 101 kPa, x1 = 0.841 | 0.513 mPa·s
313.15 K, 101 kPa, x1 = 0.915 | 0.494 mPa·s
318.15 K, 101 kPa, x1 = 0.082 | 1.351 mPa·s
318.15 K, 101 kPa, x1 = 0.151 | 1.195 mPa·s
318.15 K, 101 kPa, x1 = 0.254 | 0.979 mPa·s
318.15 K, 101 kPa, x1 = 0.345 | 0.847 mPa·s
318.15 K, 101 kPa, x1 = 0.52 | 0.645 mPa·s
318.15 K, 101 kPa, x1 = 0.678 | 0.553 mPa·s
318.15 K, 101 kPa, x1 = 0.841 | 0.48 mPa·s
318.15 K, 101 kPa, x1 = 0.915 | 0.465 mPa·s

From the CheMixHub viscosity set
